Test results reported in ChEMBL document CHEMBL4339211 (Bioorg Med Chem, 2019).

Columns and labels:
Format in all cases: functional, cell-based
D(1A) dopamine receptor [1] = biological target: T1, D(1A) dopamine receptor (Homo sapiens, UniProt P21728); assay: Antagonist activity at D1 receptor (unknown origin) expressed in CHOK1 cells assessed as inhibition of SKF38393-induced cAMP accumulation measured after 30 mins
D(2) dopamine receptor [2] = biological target: T2, D(2) dopamine receptor (Homo sapiens, UniProt P14416); assay: Antagonist activity at D2 receptor (unknown origin) expressed in CHOK1 cells assessed as inhibition of dopamine-induced calcium flux preincubated for 60 mins at 37 degC followed by 15 mins incubation under room temperature and subsequent dopamine addition measured after 20 secs for 100 secs by calcium-4 dye based FLIPR assay
D(1A) dopamine receptor [3] = biological target: T1, D(1A) dopamine receptor; assay: Agonist activity at D1 receptor (unknown origin) expressed in CHOK1 cells assessed as increase in cAMP accumulation at 10 uM measured after 30 mins
D(2) dopamine receptor [4] = biological target: T2, D(2) dopamine receptor; assay: Agonist activity at D2 receptor (unknown origin) expressed in CHOK1 cells assessed as increase in calcium flux at 10 uM incubated for 60 mins at 37 degC followed by 15 mins incubation under room temperature measured after 20 secs for 100 secs by calcium-4 dye based FLIPR assay relative to control

T1 sequence (P21728 whole entry): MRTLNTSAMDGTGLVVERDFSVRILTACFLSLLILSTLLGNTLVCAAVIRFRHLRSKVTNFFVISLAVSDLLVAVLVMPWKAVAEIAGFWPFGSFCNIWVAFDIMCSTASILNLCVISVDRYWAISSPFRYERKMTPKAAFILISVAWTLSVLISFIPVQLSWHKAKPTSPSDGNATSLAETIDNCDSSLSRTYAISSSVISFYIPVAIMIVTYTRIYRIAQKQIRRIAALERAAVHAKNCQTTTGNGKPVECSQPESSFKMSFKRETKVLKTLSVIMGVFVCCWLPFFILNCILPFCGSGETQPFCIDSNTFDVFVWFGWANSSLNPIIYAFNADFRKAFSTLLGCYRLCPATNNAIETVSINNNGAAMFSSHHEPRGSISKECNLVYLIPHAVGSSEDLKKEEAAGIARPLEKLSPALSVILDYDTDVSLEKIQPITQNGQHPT
T2 sequence (P14416 whole entry): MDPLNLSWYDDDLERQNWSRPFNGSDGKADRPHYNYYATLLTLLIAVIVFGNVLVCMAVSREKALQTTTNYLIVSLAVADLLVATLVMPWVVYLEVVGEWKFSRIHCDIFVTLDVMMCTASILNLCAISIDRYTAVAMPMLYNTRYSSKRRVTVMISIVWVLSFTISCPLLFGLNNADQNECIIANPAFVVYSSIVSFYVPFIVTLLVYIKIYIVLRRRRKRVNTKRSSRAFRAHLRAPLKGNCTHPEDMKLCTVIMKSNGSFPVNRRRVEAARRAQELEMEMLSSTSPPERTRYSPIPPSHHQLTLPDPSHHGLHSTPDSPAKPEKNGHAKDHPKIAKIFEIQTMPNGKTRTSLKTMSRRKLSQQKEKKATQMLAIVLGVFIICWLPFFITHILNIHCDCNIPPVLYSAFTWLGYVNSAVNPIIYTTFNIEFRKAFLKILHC

Row | IC50 (D(1A) dopamine receptor [1]) [nM] | IC50 (D(2) dopamine receptor [2]) [nM] | Activity (D(1A) dopamine receptor [3]) [%] | Activity (D(2) dopamine receptor [4]) [%] | SMILES
1 | 1420 | 500 | -4.41 | 2.17 | Oc1ccc2c(c1)CN1CCc3cc4c(cc3C1C2)OCO4 (racemic)
2 | > 10000 | > 10000 | -1.05 | 2.96 | COc1ccc2c(c1O[C@@H]1O[C@H](CO)[C@@H](O)[C@H](O)[C@H]1O)CN1CCc3cc4c(cc3[C@@H]1C2)OCO4
3 | 7420 | 1080 | -5.75 | 1.29 | COc1cc2c(c(OC)c1O)CC1c3cc4c(cc3CCN1C2)OCO4 (racemic)
4 | > 10000 | 6360 | -4.17 | 3.74 | COc1cc2c(cc1OC)C1Cc3c(cc(OC)c(O)c3OC)CN1CC2 (racemic)
5 | > 10000 | 4940 | -3.7 | 3.81 | COc1cc2c(cc1O)CC1c3cc4c(cc3CCN1C2)OCO4 (racemic)
6 | > 10000 | > 10000 | 4.48 | 2.5 | c1ccc(COc2cccc3c2CC2c4cc5c(cc4CCN2C3)OCO5)cc1 (racemic)
7 | > 10000 | 7960 | -3.69 | 2.97 | COc1cc(/C=C/C(=O)Oc2c(OC)ccc3c2CN2CCc4cc5c(cc4C2C3)OCO5)ccc1OC(C)=O (racemic)
8 | 630 | 40 | -3.17 | 2.53 | COc1ccc2c(c1OC)CN1CCc3cc(O)c(O)cc3C1C2 (racemic)
9 | > 10000 | > 10000 | -7.46 | 3.17 | COc1ccc2c(c1O[C@@H]1O[C@H](CO)[C@@H](O)[C@H](O)[C@H]1O)CN1CCc3cc4c(cc3[C@H]1C2)OCO4
10 | 670 | 2590 | -5.16 | 3.35 | COc1cc2c(cc1O)CC1c3cc(OC)c(OC)cc3CCN1C2 (racemic)
11 | 1080 | 420 | 0 | 4.5 | COc1ccc2c(c1OC(C)=O)CN1CCc3cc4c(cc3C1C2)OCO4 (racemic)
12 | 1630 | 450 | -7.43 | 3.51 | COc1cc2c(cc1OC)[C@@H]1Cc3ccc(OC)c(OC)c3CN1CC2 [TETRAHYDROPALMATINE]
13 | 6510 | 1530 | -3.91 | 2.39 | COc1cc2c(cc1OC)C1Cc3ccc(O)cc3CN1CC2 (racemic)
14 | 1030 | 190 | 1.8 | 2.22 | Oc1cccc2c1CC1c3cc4c(cc3CCN1C2)OCO4 (racemic)
15 | > 10000 | 8810 | 5.95 | 6.88 | COc1cc2c(cc1OC)C1Cc3c(cc(O)c(OC)c3OC)CN1CC2 (racemic)
16 | 410 | 3110 | -4.32 | 5.52 | COc1cc2c(cc1OC)C1Cc3ccc(OC)c(O)c3CN1CC2 (racemic)
17 | > 10000 | 3580 | 24.4 | 3.67 | COc1cc2c(cc1O)C1Cc3cc(OC)c(OC)cc3CN1CC2 (racemic)
18 | 390 | 76 | -5.41 | 4.27 | COc1ccc2c(c1O)CN1CCc3cc(O)c(O)cc3C1C2 (racemic)
